From patent US5621010A, “Urea derivatives and their use as ACAT inhibitors” (Nisshin Flour Milling Co., Ltd., priority 1993, dated 1997)

Legend:
[1] = system: ACAT (liver microsome fractions of male rabbits); assay: ACAT inhibitory activity: formation of labelled cholesteryl esters from [1-14C]oleoyl-CoA and endogenous cholesterol; assay type: biochemical, rabbit; conditions: compound added at 10^-7 M
Experimental: The enzyme preparation, ACAT was prepared from liver microsme fractions of male rabbits according to the method of E. E. Largis et al. (Journal of Lipid Research, Vol. 30, pages 681-690, 1989). The activity was calculated by assaying the amount of the labelled cholesteryl esters formed from [1-^14 C]oleoyl-CoA and endogenous cholesterol according to the method of Kazuichi NATORI et al. (Japan J. Pharmacol., Vol. 42, pages 517-523, 1986).
The result is shown in Table 1, in which percent inhibition of the formation of the labelled cholesteryl esters with a compound added at 10^-7 M is indicated as index for the ACAT inhibitory activity.

Human LDL = assay: Antioxidative activity: inhibition of MDA formation from LDL incubated with cupric sulfate; assay type: biochemical; conditions: compound 10^-5 M; cupric sulfate 5×10^-6 M; 5 hrs; compared with control
Experimental: Human LDL was incubated in the presence of cupric sulfate (5×10^-6 M) and in the presence or absence of a compound (10^-5 M) for 5 hrs. After the incubation, the peroxidation of low-density lipoproteins (LDL) is evaluated by the formation of malondialdehyde (MDA), which is a sort of lipid peroxides according to the method of Simon J. T. Mao et al. (J. Med. Chem., Vol. 34, pages 298-302, 1991). Activity of the compound is shown by percent inhibition of the MDA formation as compared with control.

Structure (SMILES) | ACAT Inhibition [1] [%] | Antioxidant Activity (percent inhibition of the MDA formation) (Human LDL) [%]
CCCCCCCN(C)C(=O)Nc1ccccc1CCc1cc(C(C)(C)C)c(O)c(C(C)(C)C)c1 [Example 41, N-[2-(3,5-di-tert-butyl-4-hydroxyphenethyl)phenyl]-N'-heptyl-N'-methylurea] | 97 | 99
CC(C)(C)c1cc(CCc2ccccc2NC(=O)N(Cc2ccccc2)Cc2ccccc2)cc(C(C)(C)C)c1O [Example 42, N-[2-(3,5-di-tert-butyl-4-hydroxyphenethyl)phenyl]-N',N'-dibenzylurea] | 95 | 97
CN(C(=O)Nc1ccccc1CCc1cc(C(C)(C)C)c(O)c(C(C)(C)C)c1)C1CCCCC1 [Example 43, N-[2-(3,5-di-tert-butyl-4-hydroxyphenethyl)phenyl]-N'-cyclohexyl-N'-methylurea] | 99 | 99
CN(Cc1c2ccccc2cc2ccccc12)C(=O)Nc1ccccc1CCc1cc(C(C)(C)C)c(O)c(C(C)(C)C)c1 [Example 44, N-[2-(3,5-di-tert-butyl-4-hydroxyphenethyl)phenyl]-N'-(9-anthryl)methyl-N'-methylurea] | 90 | 94
CC(C)(C)c1cc(CCc2ccccc2NC(=O)NC(C2CCCCC2)C2CCCCC2)cc(C(C)(C)C)c1O [Example 50, N-[2-(3,5-di-tert-butyl-4-hydroxyphenethyl)phenyl]-N'-(dicyclohexylmethyl)urea] | 88 | 90
CC(C)(C)c1cc(CCc2ccccc2NC(=O)NC2CCC(C(C)(C)C)CC2)cc(C(C)(C)C)c1O (stereo not shown) [Example 52, N-[2-(3,5-di-tert-butyl-4-hydroxyphenethyl)phenyl]-N'-(4-tert-butylcyclohexyl)urea] | 97 | 94
CC(C)(C)c1cc(CCc2ccccc2NC(=O)NC2CCC(OCc3ccccc3)CC2)cc(C(C)(C)C)c1O (stereo not shown) [Example 57] | 89 | 95
CCOC(=O)[C@@H](NC(=O)Nc1ccccc1CCc1cc(C(C)(C)C)c(O)c(C(C)(C)C)c1)c1ccccc1 [Example 69, (S)-N-[2-(3,5-di-tert-butyl-4-hydroxyphenethyl)phenyl]-N'-(α-ethoxycarbonyl)benzylurea] | 96 | 95
CC(C)(C)c1cc(CCc2ccccc2NC(=O)NC(C)(C)c2ccc(Cl)c(Cl)c2)cc(C(C)(C)C)c1O [Example 74, N-[2-(3,5-di-tert-butyl-4-hydroxyphenethyl)phenyl]-N'-[2-(3,4-dichlorophenyl)-2-propyl]urea] | 96 | 95
CN(C)c1ccc(CCNC(=O)Nc2ccccc2CCc2cc(C(C)(C)C)c(O)c(C(C)(C)C)c2)cc1 [Example 75, N-[2-(3,5-di-tert-butyl-4-hydroxyphenethyl)phenyl]-N'-(4-dimethylaminophenethyl)urea] | 88 | 95
CC(C)(C)c1cc(CCc2ccccc2NC(=O)NCC2(c3ccc4c(c3)OCO4)CCCC2)cc(C(C)(C)C)c1O [Example 76, N-[2-(3,5-di-tert-butyl-4-hydroxyphenethyl)phenyl]-N'-[[1-(3,4-methylenedioxyphenyl)cyclopentyl]methyl]urea] | 98 | 96
